target: FGFR2 (Homo sapiens (Human), UniProt P21802); test: FGFR2 Biochemical Caliper Assay; settings: not given
Experimental: Compounds of the present invention were also tested in a FGFR2 Biochemical Caliper Assay. Compounds were prepared in 10 mM DMSO solution and serially diluted into 11 concentrations by 3-fold dilution. […] 5 uL of ATP solution (100 uM) was added to start the reaction and the plate was incubated for 90 minutes, then 70 uL of stopping buffer (0.5M EDTA) was added to terminate the reaction. Each well was analyzed using EZ reader.

Sequence of FGFR2 (P21802 22-821): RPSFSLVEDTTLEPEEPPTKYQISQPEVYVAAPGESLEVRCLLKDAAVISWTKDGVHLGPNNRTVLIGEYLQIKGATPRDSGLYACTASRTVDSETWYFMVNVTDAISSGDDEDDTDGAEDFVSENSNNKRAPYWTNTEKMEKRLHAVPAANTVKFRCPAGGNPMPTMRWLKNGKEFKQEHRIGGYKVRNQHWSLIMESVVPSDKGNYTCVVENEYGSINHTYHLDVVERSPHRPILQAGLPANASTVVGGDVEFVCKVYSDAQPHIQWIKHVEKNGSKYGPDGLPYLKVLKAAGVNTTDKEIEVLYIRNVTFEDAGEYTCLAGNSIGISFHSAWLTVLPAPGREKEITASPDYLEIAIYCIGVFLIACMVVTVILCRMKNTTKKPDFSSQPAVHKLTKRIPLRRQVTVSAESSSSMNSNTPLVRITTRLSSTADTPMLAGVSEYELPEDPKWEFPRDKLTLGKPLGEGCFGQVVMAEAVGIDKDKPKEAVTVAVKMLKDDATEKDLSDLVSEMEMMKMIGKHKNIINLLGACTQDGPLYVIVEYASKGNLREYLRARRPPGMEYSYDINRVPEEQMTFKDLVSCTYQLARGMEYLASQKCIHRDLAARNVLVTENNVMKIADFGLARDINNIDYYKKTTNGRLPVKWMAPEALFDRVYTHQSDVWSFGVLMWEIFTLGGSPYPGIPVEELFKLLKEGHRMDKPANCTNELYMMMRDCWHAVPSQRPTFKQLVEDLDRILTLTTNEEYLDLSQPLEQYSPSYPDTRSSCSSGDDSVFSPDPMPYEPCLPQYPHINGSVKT

IC50 [nM] | Structure (SMILES)
250 to 1000 | C=CC(=O)N1CC[C@H](c2[nH]c3ncnc(N)c3c2-c2ccc(Oc3cccc(C)n3)cc2)C1 (single isomer, unassigned) [Example 754]
250 to 1000 | C=CC(=O)N1CCC(c2c(-c3ccc(Oc4ccccn4)c(OC)c3)c3c(N)ncnc3n2C)C1 (centres unmarked) [Example 675]
< 100 | C=CC(=O)N1CCC(n2cc(-c3c(-c4ccc(Oc5cccc(OC)n5)cc4)c4c(N)ncnc4n3C)cn2)CC1 [Example 650]
250 to 1000 | C=C(C)C(=O)Nc1ccc(-c2c(-c3ccc(Oc4ccc(F)cn4)c(F)c3)c3c(N)ncnc3n2C)cc1 [Example 114]
< 100 | C=C(C)C(=O)Nc1ccc(-c2c(-c3ccc(NC(=O)C4CCCC4)cc3)c3c(N)ncnc3n2C)cc1 [Example 224]
< 100 | C=CC(=O)Nc1ccc(-c2c(-c3ccc(Oc4ncccn4)cc3)c3c(N)ncnc3n2C)cc1 [Example 54]
< 100 | C=C(C)C(=O)Nc1ccc(-c2c(-c3ccc(Oc4cccc(C)n4)cc3)c3c(N)ncnc3n2C2COC2)cc1 [Example 415]
100 to 250 | Cn1c(-c2ccc(NC(=O)[C@@H]3CO3)cc2)c(-c2ccc(C(=O)N3CCCC3)cc2)c2c(N)ncnc21 (single isomer, unassigned) [Example 584]
250 to 1000 | C/C=C/C(=O)N1CCC(c2c(-c3ccc(Oc4cccc(C)n4)cc3)c3c(N)ncnc3n2C)CC1 [Example 694]
< 100 | C=C(C)C(=O)Nc1ccc(-c2c(-c3ccc(C(=O)N4CC[C@H]5C[C@H]54)cc3)c3c(N)ncnc3n2C)c(F)c1 (single isomer, unassigned) [Example 466]
< 100 | C=C(C)C(=O)Nc1ccc(-c2c(-c3ccc(C(=O)N4CC5CCC5C4)cc3)c3c(N)ncnc3n2C)cc1 (centres unmarked) [Example 291]
100 to 250 | C=C(C)C(=O)Nc1ccc(-c2c(-c3ccc(C(=O)N(C)C4CCCC4)cc3)c3c(N)ncnc3n2C)cc1 [Example 233]
< 100 | C=C(C)C(=O)Nc1ccc(-c2c(-c3ccc(Oc4nccc(C(F)F)n4)cc3)c3c(N)ncnc3n2C)cc1 [Example 600]
< 100 | C=CC(=O)Nc1ccc(-c2c(-c3ccc(Oc4ccn(C)n4)c(OC)c3)c3c(N)ncnc3n2C)cc1 [Example 145]

Second part, the compound before the results:

Structure (SMILES) | IC50 [nM]
C=C(C)C(=O)Nc1ccc(-c2c(-c3ccc(C(=O)N[C@@H](CO)C4CC4)cc3)c3c(N)ncnc3n2C)cc1 [Example 290] | < 100
C/C=C/C(=O)N1CCC(n2cc(-c3c(-c4ccc(Oc5cccc(C)n5)cc4)c4c(N)ncnc4n3C)cn2)CC1 [Example 649] | 100 to 250
C=C(COC)C(=O)Nc1ccc(-c2c(-c3ccc(Oc4cccc(C)n4)cc3)c3c(N)ncnc3n2C)cc1 [Example 401] | < 100
C=C(C)C(=O)Nc1ccc(-c2c(-c3ccc(C(=O)NC4CC(F)C4)c(F)c3)c3c(N)ncnc3n2C)cc1 (centres unmarked) [Example 567] | 100 to 250
C=C(C)C(=O)Nc1ccc(-c2c(-c3ccc(C(=O)N4CC5CC4C5)cc3)c3c(N)ncnc3n2C)c(F)c1 [Example 463] | < 100
C=C(C)C(=O)Nc1ccc(-c2c(-c3ccc(C(=O)NC4CCOC4)c(OC)c3)c3c(N)ncnc3n2C)cc1 (centres unmarked) [Example 386] | < 100
C=CC(=O)N1CCC(c2c(-c3ccc(Oc4ncccn4)cc3)c3c(N)ncnc3n2CCN2CCN(C)CC2)C1 (centres unmarked) [Example 738] | 1000 to 100000
C=CC(=O)N1CCC(c2c(-c3ccc(CN4CCOCC4=O)cc3)c3c(N)ncnc3n2C)C1 (centres unmarked) [Example 789] | 1000 to 100000
C=C(C)C(=O)Nc1ccc(-c2c(-c3ccc(C(=O)N4CCCCC4C)cc3)c3c(N)ncnc3n2C)cc1 (centres unmarked) [Example 189] | < 100
C=C(C)C(=O)Nc1ccc(-c2c(-c3ccc(C(=O)NCC4CCC4)c(F)c3)c3c(N)ncnc3n2C)cc1 [Example 413] | < 100
C=CC(=O)Nc1ccc(-c2c(-c3ccc(Oc4ncc(Cl)cn4)c(OC)c3)c3c(N)ncnc3n2C)cc1 [Example 78] | < 100
Cn1c(-c2ccc(NC(=O)C3=CCC3)cc2)c(-c2ccc(C(=O)N3CCCC3)cc2)c2c(N)ncnc21 [Example 512] | < 100
C=CC(=O)N1CCC(c2c(-c3ccc(C(O)C4CC4)cc3)c3c(N)ncnc3n2C)C1 (centres unmarked) [Example 790] | 250 to 1000
C=C(C)C(=O)Nc1ccc(-c2c(-c3ccc(Oc4cccc(C)n4)c(F)c3)c3c(N)ncnc3n2C)cc1 [Example 395] | < 100

tested on: SNU16 cells; test: SNU16 Cancer Cell Line Proliferation Assay; type: cell-based; settings: Homo sapiens; SNU-16 cells
Procedure, shortened: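 SNU16 cells were seeded, held 24 h at 37 degrees, then dosed with an 11-point 3-fold dilution series prepared from a 10 mM DMSO stock. After 96 h incubation, viability was read by CellTiter Glo luminescence.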

IC50 [nM] | Structure (SMILES)
100 to 250 | C=CC(=O)N1CC[C@H](c2[nH]c3ncnc(N)c3c2-c2ccc(Oc3cccc(C)n3)cc2)C1 (single isomer, unassigned) [Example 754]
1000 to 100000 | C=CC(=O)N1CCC(c2c(-c3ccc(Oc4ccccn4)c(OC)c3)c3c(N)ncnc3n2C)C1 (centres unmarked) [Example 675]
≤ 100 | C=CC(=O)N1CCC(n2cc(-c3c(-c4ccc(Oc5cccc(OC)n5)cc4)c4c(N)ncnc4n3C)cn2)CC1 [Example 650]
100 to 250 | C=C(C)C(=O)Nc1ccc(-c2c(-c3ccc(Oc4ccc(F)cn4)c(F)c3)c3c(N)ncnc3n2C)cc1 [Example 114]
≤ 100 | C=C(C)C(=O)Nc1ccc(-c2c(-c3ccc(NC(=O)C4CCCC4)cc3)c3c(N)ncnc3n2C)cc1 [Example 224]
≤ 100 | C=CC(=O)Nc1ccc(-c2c(-c3ccc(Oc4ncccn4)cc3)c3c(N)ncnc3n2C)cc1 [Example 54]
≤ 100 | C=C(C)C(=O)Nc1ccc(-c2c(-c3ccc(Oc4cccc(C)n4)cc3)c3c(N)ncnc3n2C2COC2)cc1 [Example 415]
250 to 1000 | Cn1c(-c2ccc(NC(=O)[C@@H]3CO3)cc2)c(-c2ccc(C(=O)N3CCCC3)cc2)c2c(N)ncnc21 (single isomer, unassigned) [Example 584]
250 to 1000 | C/C=C/C(=O)N1CCC(c2c(-c3ccc(Oc4cccc(C)n4)cc3)c3c(N)ncnc3n2C)CC1 [Example 694]
≤ 100 | C=C(C)C(=O)Nc1ccc(-c2c(-c3ccc(C(=O)N4CC[C@H]5C[C@H]54)cc3)c3c(N)ncnc3n2C)c(F)c1 (single isomer, unassigned) [Example 466]
≤ 100 | C=C(C)C(=O)Nc1ccc(-c2c(-c3ccc(C(=O)N4CC5CCC5C4)cc3)c3c(N)ncnc3n2C)cc1 (centres unmarked) [Example 291]
100 to 250 | C=C(C)C(=O)Nc1ccc(-c2c(-c3ccc(C(=O)N(C)C4CCCC4)cc3)c3c(N)ncnc3n2C)cc1 [Example 233]
≤ 100 | C=C(C)C(=O)Nc1ccc(-c2c(-c3ccc(Oc4nccc(C(F)F)n4)cc3)c3c(N)ncnc3n2C)cc1 [Example 600]
≤ 100 | C=CC(=O)Nc1ccc(-c2c(-c3ccc(Oc4ccn(C)n4)c(OC)c3)c3c(N)ncnc3n2C)cc1 [Example 145]

Continued, compound first:

Structure (SMILES) | IC50 [nM]
C=C(C)C(=O)Nc1ccc(-c2c(-c3ccc(C(=O)N[C@@H](CO)C4CC4)cc3)c3c(N)ncnc3n2C)cc1 [Example 290] | 100 to 250
C/C=C/C(=O)N1CCC(n2cc(-c3c(-c4ccc(Oc5cccc(C)n5)cc4)c4c(N)ncnc4n3C)cn2)CC1 [Example 649] | 250 to 1000
C=C(COC)C(=O)Nc1ccc(-c2c(-c3ccc(Oc4cccc(C)n4)cc3)c3c(N)ncnc3n2C)cc1 [Example 401] | ≤ 100
C=C(C)C(=O)Nc1ccc(-c2c(-c3ccc(C(=O)NC4CC(F)C4)c(F)c3)c3c(N)ncnc3n2C)cc1 (centres unmarked) [Example 567] | ≤ 100
C=C(C)C(=O)Nc1ccc(-c2c(-c3ccc(C(=O)N4CC5CC4C5)cc3)c3c(N)ncnc3n2C)c(F)c1 [Example 463] | ≤ 100
C=C(C)C(=O)Nc1ccc(-c2c(-c3ccc(C(=O)NC4CCOC4)c(OC)c3)c3c(N)ncnc3n2C)cc1 (centres unmarked) [Example 386] | 100 to 250
C=CC(=O)N1CCC(c2c(-c3ccc(Oc4ncccn4)cc3)c3c(N)ncnc3n2CCN2CCN(C)CC2)C1 (centres unmarked) [Example 738] | 1000 to 100000
C=CC(=O)N1CCC(c2c(-c3ccc(CN4CCOCC4=O)cc3)c3c(N)ncnc3n2C)C1 (centres unmarked) [Example 789] | 1000 to 100000
C=C(C)C(=O)Nc1ccc(-c2c(-c3ccc(C(=O)N4CCCCC4C)cc3)c3c(N)ncnc3n2C)cc1 (centres unmarked) [Example 189] | ≤ 100
C=C(C)C(=O)Nc1ccc(-c2c(-c3ccc(C(=O)NCC4CCC4)c(F)c3)c3c(N)ncnc3n2C)cc1 [Example 413] | ≤ 100
C=CC(=O)Nc1ccc(-c2c(-c3ccc(Oc4ncc(Cl)cn4)c(OC)c3)c3c(N)ncnc3n2C)cc1 [Example 78] | ≤ 100
Cn1c(-c2ccc(NC(=O)C3=CCC3)cc2)c(-c2ccc(C(=O)N3CCCC3)cc2)c2c(N)ncnc21 [Example 512] | ≤ 100
C=CC(=O)N1CCC(c2c(-c3ccc(C(O)C4CC4)cc3)c3c(N)ncnc3n2C)C1 (centres unmarked) [Example 790] | 1000 to 100000
C=C(C)C(=O)Nc1ccc(-c2c(-c3ccc(Oc4cccc(C)n4)c(F)c3)c3c(N)ncnc3n2C)cc1 [Example 395] | ≤ 100

From patent US11780845B2 (Relay Therapeutics, Inc., priority 2019, dated 2023)
